Measured values published in US20050009840A1 (SUGEN, INC., priority 2003, published 2005).

What follows are compounds tested against T1, Met kinase domain (GST fusion protein) (Homo sapiens, UniProt P08581) (assay: Met transphosphorylation assay (ELISA, poly(glu-tyr) substrate)). Conditions: Table 2; read-out: Met IC50.
T1 construct: Purified GST fusion protein containing the Met kinase domain
Assay type: biochemical
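Note: Cell-free ELISA with plate-bound poly(Glu:Tyr 4:1) phosphorylated by GST-fused Met kinase domain plus ATP and Mn2+, phosphotyrosine detected by anti-phosphotyrosine antibody with HRP and ABTS read-out.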

T1 sequence (P08581 1078-1345 limits assumed): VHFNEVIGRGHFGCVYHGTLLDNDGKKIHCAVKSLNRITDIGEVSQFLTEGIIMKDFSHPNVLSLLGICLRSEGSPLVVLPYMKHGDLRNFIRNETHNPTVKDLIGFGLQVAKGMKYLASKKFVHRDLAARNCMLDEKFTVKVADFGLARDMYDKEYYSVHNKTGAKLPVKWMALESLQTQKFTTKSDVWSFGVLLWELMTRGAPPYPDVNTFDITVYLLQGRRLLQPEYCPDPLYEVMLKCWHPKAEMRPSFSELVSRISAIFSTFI

| Structure (SMILES) | IC50 [µM] |
| --- | --- |
| CC(Oc1cc(-c2ccc(OC3CCN(C)CC3)cc2)cnc1N)c1c(Cl)ccc(F)c1Cl (stereo not drawn) [Example I-363, 3-[1-(2,6-Dichloro-3-fluoro-phenyl)-ethoxy]-5-[4-(1-methyl-piperidin-4-yloxy)-phenyl]-pyridin-2-ylamine] | 0.052 |
| CC(Oc1cc(-c2ccc(NS(C)(=O)=O)cc2)cnc1N)c1c(F)ccc(F)c1Cl (stereo not drawn) [Example I-364, N-(4-{6-Amino-5-[1-(2-chloro-3,6-difluoro-phenyl)-ethoxy]-pyridin-3-yl}-phenyl)-methanesulfonamide] | 0.1 |

Same assay, conditions: plain numbers in column Met IC50 (μM) of Table 2; read-out: Met IC50

| Structure (SMILES) | IC50 [µM] |
| --- | --- |
| CC(Oc1cc(-c2ccc(N3CCCS3(=O)=O)cc2)cnc1N)c1c(F)ccc(F)c1Cl (stereo not drawn) [Example I-365, 3-[1-(2-Chloro-3,6-difluoro-phenyl)-ethoxy]-5-[4-(1,1-dioxo-1lambda*6*- isothiazolidin-2-yl)-phenyl]-pyridin-2-ylamine] | 0.14 |
| CC(Oc1cc(-c2ccc(NS(C)(=O)=O)cc2)cnc1N)c1c(Cl)ccc(F)c1Cl (stereo not drawn) [Example I-366, N-(4-{6-Amino-5-[1-(2,6-dichloro-3-fluoro-phenyl)-ethoxy]-pyridin-3-yl}-phenyl)-methanesulfonamide] | 0.076 |
| C[C@@H](Oc1cc(-c2ccc(NS(C)(=O)=O)cc2)cnc1N)c1c(F)ccc(F)c1Cl [Example I-368, N-(4-{6-Amino-5-[(R)-1-(2-chloro-3,6-difluoro-phenyl)-ethoxy]-pyridin-3-yl}-phenyl)-methanesulfonamide] | 0.066 |
| CC(Oc1cc(-c2ccsc2)cnc1N)c1c(Cl)ccc(F)c1Cl (stereo not drawn) [Example I-369, 3-[1-(2,6-Dichloro-3-fluoro-phenyl)-ethoxy]-5-thiophen-3-yl-pyridin-2-ylamine] | 0.055 |
| CC(Oc1cc(-c2cc3ccccc3s2)cnc1N)c1c(Cl)ccc(F)c1Cl (stereo not drawn) [Example I-370, 5-Benzo[b]thiophen-2-yl-3-[1-(2,6-dichloro-3-fluoro-phenyl)-ethoxy]-pyridin-2-ylamine] | 1.95 |
| CC(Oc1cc(-c2ccc(NC(=O)N3CCN(C)CC3)cc2)cnc1N)c1c(Cl)ccc(F)c1Cl (stereo not drawn) [Example I-371, 4-Methyl-piperazine-1-carboxylic acid (4-{6-amino-5-[1-(2,6-dichloro-3-fluoro-phenyl)-ethoxy]-pyridin-3-yl}-phenyl)-amide] | 0.057 |
| CC(Oc1cc(-c2ccc(NC(=O)NCCN3CCCC3)cc2)cnc1N)c1c(Cl)ccc(F)c1Cl (stereo not drawn) [Example I-372, 1-(4-{6-Amino-5-[1-(2,6-dichloro-3-fluoro-phenyl)-ethoxy]-pyridin-3-yl}-phenyl)-3-(2-pyrrolidin-1-yl-ethyl)-urea] | 0.21 |
| CC(Oc1cc(-c2ccc(NC(=O)NCCO)cc2)cnc1N)c1c(Cl)ccc(F)c1Cl (stereo not drawn) [Example I-373, 1-(4-{6-Amino-5-[1-(2,6-dichloro-3-fluoro-phenyl)-ethoxy]-pyridin-3-yl}-phenyl)-3-(2-hydroxy-ethyl)-urea] | 0.064 |
| CC(Oc1cc(-c2ccc(NC(=O)NCCN3CCOCC3)cc2)cnc1N)c1c(Cl)ccc(F)c1Cl (stereo not drawn) [Example I-374, 1-(4-{6-Amino-5-[1-(2,6-dichloro-3-fluoro-phenyl)-ethoxy]-pyridin-3-yl}-phenyl)-3-(2-morpholin-4-yl-ethyl)-urea] | 0.062 |
| CC(Oc1cc(-c2ccc(NC(=O)N3CC[C@@H](N)C3)cc2)cnc1N)c1c(Cl)ccc(F)c1Cl (stereo partly drawn) [Example I-375, (R)-3-Amino-pyrrolidine-1-carboxylix acid (4-{6-amino-5-[1-(2,6-dichloro-3-fluoro-phenyl)-ethoxy]-pyridin-3-yl}-phenyl)-amide] | 0.053 |
| CC(Oc1cc(-c2ccc(NC(=O)N3CC[C@H](N)C3)cc2)cnc1N)c1c(Cl)ccc(F)c1Cl (stereo partly drawn) [Example I-376, (S)-3-Amino-pyrrolidine-1-carboxylic acid (4-{6-amino-5-[1-(2,6-dichloro-3-fluoro-phenyl)-ethoxy]-pyridin-3-yl}-phenyl)-amide] | 0.052 |
| CC(Oc1cc(-c2ccc(NC(=O)NC3CCN(C)CC3)cc2)cnc1N)c1c(Cl)ccc(F)c1Cl (stereo not drawn) [Example I-377, 1-(4-{6-Amino-5-[1-(2,6-dichloro-3-fluoro-phenyl)-ethoxy]-pyridin-3-yl}-phenyl)-3-(1-methyl-pipendin-4-yl)-urea] | 0.04 |
| CC(Oc1cc(-c2ccc(NC(=O)NC3CCN(C)CC3)cc2)cnc1N)c1c(F)ccc(F)c1Cl (stereo not drawn) [Example I-378, 1-(4-{6-Amino-5-[1-(2-chloro-3,6-difluoro-phenyl)-ethoxy]-pyridin-3-yl}-phenyl)-3-(1-methyl-pipendin-4-yl)-urea] | 0.038 |
| CC(Oc1cc(-c2ccc(NC(=O)N3CC[C@@H](N)C3)cc2)cnc1N)c1c(F)ccc(F)c1Cl (stereo partly drawn) [Example I-379, (R)-3-Amino-pyrrolidine-1-carboxylic acid (4-{6-amino-5-[1-(2-chloro-3,6-difluoro-phenyl)-ethoxy]-pyridin-3-yl}-phenyl)-amide] | 0.069 |
| CC(Oc1cc(-c2ccc(NC(=O)N3CC[C@H](N)C3)cc2)cnc1N)c1c(F)ccc(F)c1Cl (stereo partly drawn) [Example I-380, (S)-3-Amino-pyrrolidine-1-carboxylic acid (4-{6-amino-5-[1-(2-chloro-3,6-difluoro-phenyl)-ethoxy}-pyridin-3-yl}-phenyl)-amide] | 0.075 |
| CC(Oc1cc(-c2ccc(NC(=O)NCCO)cc2)cnc1N)c1c(F)ccc(F)c1Cl (stereo not drawn) [Example I-381, 1-(4-{6-Amino-5-[1-(2-chloro-3,6-difluoro-phenyl)-ethoxy]-pyridin-3-yl}-phenyl)-3-(2-hydroxy-ethyl)-urea] | 0.11 |

| Structure (SMILES) | IC50 [µM] |
| --- | --- |
| CC(Oc1cc(-c2ccc(NC(=O)N3CCN(C)CC3)cc2)cnc1N)c1c(F)ccc(F)c1Cl (stereo not drawn) [Example I-382, 4-Methyl-piperazine-1-carboxylic acid (4-{6-amino-5-[1-(2-chloro-3,6-difluoro-phenyl)-ethoxy]-pyridin-3-yl}-phenyl)-amine] | 0.082 |
| CC(Oc1cc(-c2ccc(NC(=O)NCCN3CCCC3)cc2)cnc1N)c1c(F)ccc(F)c1Cl (stereo not drawn) [Example I-383, 1-(4-{6-Amino-5-[1-(2-chloro-3,6-difluoro-phenyl)-ethoxy]-pyridin-3-yl}-phenyl)-3-(2-pyrrolidin-1-yl-ethyl)-urea] | 0.11 |
| CC(Oc1cc(-c2ccc(NC(=O)NCCN3CCOCC3)cc2)cnc1N)c1c(F)ccc(F)c1Cl (stereo not drawn) [Example I-384, 1-(4-{6-Amino-5-[1-(2-chloro-3,6-difluoro-phenyl)-ethoxy]-pyridin-3-yl}-phenyl)-3-(2-morpholin-4-yl-ethyl)-urea] | 0.13 |
| CC(Oc1cc(-c2ccc(NC(=O)N3CCC[C@@H]3CN3CCCC3)cc2)cnc1N)c1c(F)ccc(F)c1Cl (stereo partly drawn) [Example I-385, (R)-2-Pyrrolidin-1-ylmethyl-pyrrolidine-1-carboxylic acid (4-{6-amino-5-[1-(2-chloro-3,6-difluoro-phenyl)-ethoxy]-pyridin-3-yl}-phenyl)-amide] | 0.13 |
| CC(Oc1cc(-c2cccc(C(=O)N3C[C@@H](C)N[C@@H](C)C3)c2)cnc1N)c1c(Cl)cccc1Cl (stereo partly drawn) [Example I-387, (3-{6-Aminno-5-[1-(2,6-dichloro-phenyl)-ethoxy]-pyridin-3-yl}-phenyl)-((3R,5S)-3,5-dimethyl-piperazin-1-yl)-methanone] | 0.16 |
| CC(Oc1cc(-c2cccc(C(=O)N3CCC(N4CCCC4)CC3)c2)cnc1N)c1c(Cl)cccc1Cl (stereo not drawn) [Example I-388, (3-{6-Amino-5-[1-(2,6-dichloro-phenyl)-ethoxy]-pyridin-3-yl}-phenyl)-(4-pyrrolidin-1-yl-piperidin-1-yl)-methanone] | 0.1 |
| CC(Oc1cc(-c2cccc(C(=O)NCCN3CCCC3)c2)cnc1N)c1c(Cl)cccc1Cl (stereo not drawn) [Example I-389, 3-{6-Amino-5-[1-(2,6-dichloro-phenyl)-ethoxy]-pyridin-3-yl}-N-(2-pyrrolidin-1-yl-ethyl)-benzamide] | 0.13 |
| CC(Oc1cc(-c2cccc(C(=O)NCCN3CCOCC3)c2)cnc1N)c1c(Cl)cccc1Cl (stereo not drawn) [Example I-390, 3-{6-Amino-5-[1-(2,6-dichloro-phenyl)-ethoxy]-pyridin-3-yl}-N-(2-morpholin-4-yl-ethyl)-benzamide] | 0.12 |
| CC(Oc1cc(-c2cccc(C(=O)N3CCC[C@H]3CN3CCCC3)c2)cnc1N)c1c(Cl)cccc1Cl (stereo partly drawn) [Example I-391, (3-{6-Amino-5-[1-(2,6-dichloro-phenyl)-ethoxy]-pyridin-3-yl}-phenyl)-((S)-2-pyrrolidin-1-ylmethyl-pyrrolidin-1-yl)-methanone] | 0.098 |
| CC(Oc1cc(-c2cccc(C(=O)NCCCN3CCCC3)c2)cnc1N)c1c(Cl)cccc1Cl (stereo not drawn) [Example I-392, 3-{6-Amino-5-[1-(2,6-dichloro-phenyl)-ethoxy]-pyridin-3-yl}-N-(3-pyrrolidin-1-yl-propyl)-benzamide] | 0.072 |
| CC(=O)N1CCN(CCNC(=O)c2cccc(-c3cnc(N)c(OC(C)c4c(Cl)cccc4Cl)c3)c2)CC1 (stereo not drawn) [Example I-393, N-[2-(4-Acetyl-piperazin-1-yl)-ethyl]-3-{6-amino-5-[1-(2,6-dichloro-phenyl)-ethoxy]-pyridin-3-yl}-benzamide] | 0.079 |
| CC(Oc1cc(-c2cccc(C(=O)NC3CCN(C)CC3)c2)cnc1N)c1c(Cl)cccc1Cl (stereo not drawn) [Example I-394, 3-{6-Amino-5-[1-(2,6-dichloro-phenyl)-ethoxy]-pyridin-3-yl}-N-(1-methyl-piperidin-4-yl)-benzamide] | 0.061 |
| CC(Oc1cc(-c2cccc(C(=O)N3CCN(C)CC3)c2)cnc1N)c1c(Cl)cccc1Cl (stereo not drawn) [Example I-395, (3-{6-amino-5-[1-(2,6-dichloro-phenyl)-ethoxy]-pyridin-3-yl}-phenyl)-(4-methyl-piperazin-1-yl)-methanone] | 0.058 |
| CC(Oc1cc(-c2cccc(C(=O)N3CCC[C@@H]3CN3CCCC3)c2)cnc1N)c1c(Cl)cccc1Cl (stereo partly drawn) [Example I-396, (3-{6-Amino-5-[1-(2,6-dichloro-phenyl)-ethoxy]-pyridin-3-yl}-phenyl)-((R)-2-pyrrolidin-1-ylmethyl-pyrrolidin-1-yl)-methanone] | 0.18 |
| CC(Oc1cc(-c2cccc(C(=O)N3CC[C@H](N)C3)c2)cnc1N)c1c(Cl)cccc1Cl (stereo partly drawn) [Example I-397, (3-{6-Amino-5-[1-(2,6-dichloro-phenyl)-ethoxy]-pyridin-3-yl}-phenyl)-((S)-3-amino-pyrrolidin-1-yl)-methanone] | 0.055 |
